Assays:
[1] = target: Neuronal acetylcholine receptor; alpha4/beta2 (Rattus norvegicus, UniProt P09483+P12390); assay: Displacement of [3H]cytisine from rat alpha4beta2 nAChR in rat brain cell membrane; type: cell membranes
[2] = target: Neuronal acetylcholine receptor subunit alpha-7 (Rattus norvegicus, UniProt Q05941); assay: Displacement of [125I]alpha-Bungarotoxin from alpha7 nAchR in rat brain cell membrane; type: cell membranes
Chain of Neuronal acetylcholine receptor subunit alpha-7 (Q05941 whole entry): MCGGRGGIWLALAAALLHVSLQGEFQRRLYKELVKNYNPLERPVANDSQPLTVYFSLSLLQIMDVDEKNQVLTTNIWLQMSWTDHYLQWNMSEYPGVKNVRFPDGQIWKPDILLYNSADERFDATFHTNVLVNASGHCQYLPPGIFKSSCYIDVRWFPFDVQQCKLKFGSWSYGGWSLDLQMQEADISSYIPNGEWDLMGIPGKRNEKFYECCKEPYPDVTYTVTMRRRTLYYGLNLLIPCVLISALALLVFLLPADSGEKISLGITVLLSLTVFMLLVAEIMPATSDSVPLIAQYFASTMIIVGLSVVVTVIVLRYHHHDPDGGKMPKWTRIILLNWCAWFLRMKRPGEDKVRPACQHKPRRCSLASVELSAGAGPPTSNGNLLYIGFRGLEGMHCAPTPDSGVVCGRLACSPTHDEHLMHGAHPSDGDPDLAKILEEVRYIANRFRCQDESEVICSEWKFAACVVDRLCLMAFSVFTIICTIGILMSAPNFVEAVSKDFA

Chain of Neuronal acetylcholine receptor; alpha4/beta2 (P09483 whole entry): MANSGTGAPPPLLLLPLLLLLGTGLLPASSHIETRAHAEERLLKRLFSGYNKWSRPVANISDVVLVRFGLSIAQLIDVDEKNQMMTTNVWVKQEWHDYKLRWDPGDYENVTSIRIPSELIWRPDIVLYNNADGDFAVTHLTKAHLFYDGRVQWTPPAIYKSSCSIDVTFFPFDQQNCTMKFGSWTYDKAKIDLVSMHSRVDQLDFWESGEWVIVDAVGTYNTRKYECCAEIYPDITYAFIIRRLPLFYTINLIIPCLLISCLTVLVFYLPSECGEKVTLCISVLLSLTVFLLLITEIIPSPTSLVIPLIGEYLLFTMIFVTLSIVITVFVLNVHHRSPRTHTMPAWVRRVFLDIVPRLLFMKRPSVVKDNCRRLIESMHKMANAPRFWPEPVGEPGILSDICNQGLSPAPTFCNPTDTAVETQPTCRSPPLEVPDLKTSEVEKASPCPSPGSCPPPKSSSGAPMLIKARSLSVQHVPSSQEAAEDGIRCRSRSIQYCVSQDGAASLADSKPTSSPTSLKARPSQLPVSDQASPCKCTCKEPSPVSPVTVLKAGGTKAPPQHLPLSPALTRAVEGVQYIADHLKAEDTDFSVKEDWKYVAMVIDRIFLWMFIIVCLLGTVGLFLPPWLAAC
Chain of Neuronal acetylcholine receptor; alpha4/beta2 (P12390 whole entry): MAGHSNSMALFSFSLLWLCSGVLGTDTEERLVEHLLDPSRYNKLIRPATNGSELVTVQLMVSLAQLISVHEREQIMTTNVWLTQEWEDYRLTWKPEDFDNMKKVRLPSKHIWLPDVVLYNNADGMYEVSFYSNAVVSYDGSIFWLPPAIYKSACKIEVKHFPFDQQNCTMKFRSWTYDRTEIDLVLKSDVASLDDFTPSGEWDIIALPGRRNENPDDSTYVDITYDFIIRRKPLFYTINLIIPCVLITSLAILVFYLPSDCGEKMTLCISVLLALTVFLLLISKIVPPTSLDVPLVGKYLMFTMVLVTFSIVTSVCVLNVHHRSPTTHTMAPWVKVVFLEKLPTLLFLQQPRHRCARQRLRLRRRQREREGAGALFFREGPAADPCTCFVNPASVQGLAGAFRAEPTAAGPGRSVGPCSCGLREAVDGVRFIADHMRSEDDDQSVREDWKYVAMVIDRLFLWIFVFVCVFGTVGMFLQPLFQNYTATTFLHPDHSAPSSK

## O=c1cccc2n1C[C@@H]1C[C@@H]2CN(Br)C1
[1]
  Ki: 0.208 nM
[2]
  Ki: 112 nM

## O=c1c(F)ccc2n1C[C@@H]1CNC[C@H]2C1
[1]
  Ki: 6.53 nM

## O=c1cccc2n1C[C@@H]1CNC[C@H]2C1 [CYTISINICLINE]
[1]
  Ki: 1.06 nM
[2]
  Ki: 1000 nM

## Cc1ccc2n(c1=O)C[C@@H]1CNC[C@H]2C1
[1]
  Ki: 0.24 nM
[2]
  Ki: 2000 nM

## O=c1c(C(F)(F)F)ccc2n1C[C@@H]1CNC[C@H]2C1
[1]
  Ki: 0.22 nM
[2]
  Ki: 1000 nM

## O=c1c(Br)ccc2n1C[C@@H]1CNC[C@H]2C1
[1]
  Ki: 0.116 nM
[2]
  Ki: 401 nM

## O=c1cccc2n1C[C@@H]1C[C@@H]2CN(I)C1
[1]
  Ki: 0.165 nM
[2]
  Ki: 2000 nM

Source: ChEMBL document CHEMBL1268923, “Identification of 9-fluoro substituted (-)-cytisine derivatives as ligands with high affinity for nicotinic receptors” (Bioorg Med Chem Lett, 2010)
